According to ChEMBL document CHEMBL1201862, “PubChem BioAssay data set” (2004):
Active and inactive are the calls of the source.

Columns and labels:
[1] = cytotoxicity in HEK-293T cells, dose response, cytotoxicity control for BCR NF-kB inhibitor project, luminescence, B-cell screen hits (AID 489021); format: functional, cell-based;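 further: HEK-293T cells carrying an NF-kB luciferase reporter; cells exposed to compound for about 14 hours before viability readout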
[2] = molecular target: T1, Acyl-homoserine lactone acylase PvdQ (Pseudomonas aeruginosa (strain LESB58), UniProt Q9I194); assay: P. aeruginosa PvdQ acylase inhibitors, dose response, biochemical, fluorescence, plate reader and imaging, cherry-picks (AID 493231)
T1 sequence (Q9I194 whole entry): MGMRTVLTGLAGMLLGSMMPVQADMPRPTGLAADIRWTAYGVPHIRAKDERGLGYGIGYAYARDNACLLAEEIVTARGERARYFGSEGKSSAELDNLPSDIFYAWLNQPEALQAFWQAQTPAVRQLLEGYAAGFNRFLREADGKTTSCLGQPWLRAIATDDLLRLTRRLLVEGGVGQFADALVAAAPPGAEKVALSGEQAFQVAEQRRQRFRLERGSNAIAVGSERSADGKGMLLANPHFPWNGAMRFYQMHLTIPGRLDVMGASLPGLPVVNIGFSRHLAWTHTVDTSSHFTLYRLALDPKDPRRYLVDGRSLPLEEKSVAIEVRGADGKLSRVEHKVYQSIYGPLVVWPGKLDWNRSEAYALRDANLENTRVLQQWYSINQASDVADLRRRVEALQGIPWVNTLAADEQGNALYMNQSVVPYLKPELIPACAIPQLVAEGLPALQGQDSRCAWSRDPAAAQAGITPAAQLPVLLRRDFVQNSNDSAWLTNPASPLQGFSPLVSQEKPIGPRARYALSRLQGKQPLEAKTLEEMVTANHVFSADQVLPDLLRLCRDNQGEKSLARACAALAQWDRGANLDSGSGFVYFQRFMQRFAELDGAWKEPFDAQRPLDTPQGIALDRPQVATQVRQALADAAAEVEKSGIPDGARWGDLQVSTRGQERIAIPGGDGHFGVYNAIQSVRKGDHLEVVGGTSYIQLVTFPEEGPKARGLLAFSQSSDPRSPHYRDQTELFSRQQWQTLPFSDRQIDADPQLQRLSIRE

HEK293 = assay: inhibitors of LMP1-driven NF-kB reporter, dose response, cell-based, HEK293, luciferase, cherry-pick (AID 588343); format: functional; settings: Homo sapiens
Beta-galactosidase = Beta-galactosidase (Escherichia coli, UniProt Q8VNN2); assay: beta-galactosidase enzyme inhibitors and activators, dose response, artefact control for CCR6 antagonist project, biochemical, E. coli enzyme, set 3 (AID 504712); format: functional
[3] = molecular target: Glucose-6-phosphate 1-dehydrogenase (Homo sapiens, UniProt P11413); assay: human G6PD enzyme inhibitors, dose response, selectivity assay for P. falciparum G6PD inhibitor project, biochemical, fluorescence (AID 504792); format: functional
[4] = molecular target: T2, Voltage-gated N-type calcium channel alpha-1B subunit/Amyloid beta A4 precursor protein-binding family A member 1 (Homo sapiens, UniProt Q00975+Q02410); format: protein assay
[5] = molecular target: Heat shock protein HSP 90-alpha (Homo sapiens, UniProt P07900); format: functional, organism-based
[6] = molecular target: DNA dC->dU-editing enzyme APOBEC-3A (Homo sapiens, UniProt P31941); assay: APOBEC3A DNA deaminase inhibitors, dose response, biochemical (AID 504722); format: functional
[7] = molecular target: T2, Voltage-gated N-type calcium channel alpha-1B subunit/Amyloid beta A4 precursor protein-binding family A member 1; format: protein assay; remark: listed apart in the source
[8] = molecular target: DNA dC->dU-editing enzyme APOBEC-3G (Homo sapiens, UniProt Q9HC16); assay: Dose Response confirmation of small molecule APOBEC3G DNA Deaminase Inhibitors via a fluorescence-based single-stranded DNA deaminase assay. [Related pubchem assays (depositor defined):AID493012, AID493028]; format: functional
[9] = A cytotoxicity screen of small molecule inhibitors of the PhoP region in Salmonella typhi identified in the primary screen. [Related pubchem assays: 1850, 1864, 1985 ]; format: functional
Estrogen receptor = molecular target: T3, Estrogen receptor (Homo sapiens, UniProt P03372);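 further: potency for inhibiting coactivator peptide recruitment to the receptor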
T3 sequence (P03372 whole entry): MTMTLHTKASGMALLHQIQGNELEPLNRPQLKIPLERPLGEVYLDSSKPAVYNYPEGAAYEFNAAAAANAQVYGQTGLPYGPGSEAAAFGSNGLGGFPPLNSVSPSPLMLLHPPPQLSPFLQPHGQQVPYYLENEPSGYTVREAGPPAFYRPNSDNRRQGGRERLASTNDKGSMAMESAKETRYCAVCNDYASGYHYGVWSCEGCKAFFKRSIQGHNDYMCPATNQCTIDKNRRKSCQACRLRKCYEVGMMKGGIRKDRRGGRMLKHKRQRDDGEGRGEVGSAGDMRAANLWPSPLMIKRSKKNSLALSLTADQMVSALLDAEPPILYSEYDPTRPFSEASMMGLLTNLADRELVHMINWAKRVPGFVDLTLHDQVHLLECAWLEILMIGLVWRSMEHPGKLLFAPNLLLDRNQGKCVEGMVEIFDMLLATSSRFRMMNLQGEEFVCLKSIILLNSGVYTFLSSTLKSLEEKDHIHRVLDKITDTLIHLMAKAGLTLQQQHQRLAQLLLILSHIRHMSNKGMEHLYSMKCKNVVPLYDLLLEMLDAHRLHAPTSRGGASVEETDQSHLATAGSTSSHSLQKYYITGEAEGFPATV

[10] = molecular target: Glyceraldehyde-3-phosphate dehydrogenase (Homo sapiens, UniProt P04406)
Hexokinase = molecular target: T4, Hexokinase (Trypanosoma brucei, UniProt Q38C41); assay: Confirmation assay for inhibitors of Trypanosoma brucei hexokinase 1-Analogue-first series. [Related pubchem assays (depositor defined):AID1430, AID1632, AID2516, AID2560, AID2579, AID2600, AID449725, AID492951]; format: functional
T4 sequence (Q38C41 whole entry): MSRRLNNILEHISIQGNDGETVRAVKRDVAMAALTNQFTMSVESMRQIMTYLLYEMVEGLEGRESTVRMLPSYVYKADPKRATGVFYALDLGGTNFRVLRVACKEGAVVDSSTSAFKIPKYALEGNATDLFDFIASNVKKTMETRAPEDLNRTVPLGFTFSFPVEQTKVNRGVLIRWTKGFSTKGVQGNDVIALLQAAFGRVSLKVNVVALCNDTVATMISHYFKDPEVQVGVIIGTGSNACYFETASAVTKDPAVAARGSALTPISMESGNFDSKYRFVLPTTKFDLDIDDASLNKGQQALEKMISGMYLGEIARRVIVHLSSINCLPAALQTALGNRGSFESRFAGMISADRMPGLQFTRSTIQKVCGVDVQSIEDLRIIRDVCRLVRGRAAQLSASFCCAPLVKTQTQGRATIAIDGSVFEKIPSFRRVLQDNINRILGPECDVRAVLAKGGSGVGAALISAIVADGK

Genome polyprotein = Genome polyprotein (dengue virus type 2, UniProt P29990); assay: Dengue-2 NS5 methyltransferase inhibitors, primary screen, biochemical, confirmation dose response (AID 588689); format: functional
[11] = molecular target: FAD-linked sulfhydryl oxidase ALR (Homo sapiens, UniProt P55789); assay: inhibitors of human ALR sulfhydryl oxidase, dose response, biochemical, H2O2 detection, luminescence, cherry-pick (AID 493248)
[12] = molecular target: Induced myeloid leukemia cell differentiation protein Mcl-1 (Homo sapiens, UniProt Q07820); format: functional
Cytochrome P450 3A4 = Cytochrome P450 3A4 (Homo sapiens, UniProt P08684); settings: Potency;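 further: confirmatory qHTS run detecting inhibitors and substrates of CYP3A4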

T2 sequence (Q00975 whole entry): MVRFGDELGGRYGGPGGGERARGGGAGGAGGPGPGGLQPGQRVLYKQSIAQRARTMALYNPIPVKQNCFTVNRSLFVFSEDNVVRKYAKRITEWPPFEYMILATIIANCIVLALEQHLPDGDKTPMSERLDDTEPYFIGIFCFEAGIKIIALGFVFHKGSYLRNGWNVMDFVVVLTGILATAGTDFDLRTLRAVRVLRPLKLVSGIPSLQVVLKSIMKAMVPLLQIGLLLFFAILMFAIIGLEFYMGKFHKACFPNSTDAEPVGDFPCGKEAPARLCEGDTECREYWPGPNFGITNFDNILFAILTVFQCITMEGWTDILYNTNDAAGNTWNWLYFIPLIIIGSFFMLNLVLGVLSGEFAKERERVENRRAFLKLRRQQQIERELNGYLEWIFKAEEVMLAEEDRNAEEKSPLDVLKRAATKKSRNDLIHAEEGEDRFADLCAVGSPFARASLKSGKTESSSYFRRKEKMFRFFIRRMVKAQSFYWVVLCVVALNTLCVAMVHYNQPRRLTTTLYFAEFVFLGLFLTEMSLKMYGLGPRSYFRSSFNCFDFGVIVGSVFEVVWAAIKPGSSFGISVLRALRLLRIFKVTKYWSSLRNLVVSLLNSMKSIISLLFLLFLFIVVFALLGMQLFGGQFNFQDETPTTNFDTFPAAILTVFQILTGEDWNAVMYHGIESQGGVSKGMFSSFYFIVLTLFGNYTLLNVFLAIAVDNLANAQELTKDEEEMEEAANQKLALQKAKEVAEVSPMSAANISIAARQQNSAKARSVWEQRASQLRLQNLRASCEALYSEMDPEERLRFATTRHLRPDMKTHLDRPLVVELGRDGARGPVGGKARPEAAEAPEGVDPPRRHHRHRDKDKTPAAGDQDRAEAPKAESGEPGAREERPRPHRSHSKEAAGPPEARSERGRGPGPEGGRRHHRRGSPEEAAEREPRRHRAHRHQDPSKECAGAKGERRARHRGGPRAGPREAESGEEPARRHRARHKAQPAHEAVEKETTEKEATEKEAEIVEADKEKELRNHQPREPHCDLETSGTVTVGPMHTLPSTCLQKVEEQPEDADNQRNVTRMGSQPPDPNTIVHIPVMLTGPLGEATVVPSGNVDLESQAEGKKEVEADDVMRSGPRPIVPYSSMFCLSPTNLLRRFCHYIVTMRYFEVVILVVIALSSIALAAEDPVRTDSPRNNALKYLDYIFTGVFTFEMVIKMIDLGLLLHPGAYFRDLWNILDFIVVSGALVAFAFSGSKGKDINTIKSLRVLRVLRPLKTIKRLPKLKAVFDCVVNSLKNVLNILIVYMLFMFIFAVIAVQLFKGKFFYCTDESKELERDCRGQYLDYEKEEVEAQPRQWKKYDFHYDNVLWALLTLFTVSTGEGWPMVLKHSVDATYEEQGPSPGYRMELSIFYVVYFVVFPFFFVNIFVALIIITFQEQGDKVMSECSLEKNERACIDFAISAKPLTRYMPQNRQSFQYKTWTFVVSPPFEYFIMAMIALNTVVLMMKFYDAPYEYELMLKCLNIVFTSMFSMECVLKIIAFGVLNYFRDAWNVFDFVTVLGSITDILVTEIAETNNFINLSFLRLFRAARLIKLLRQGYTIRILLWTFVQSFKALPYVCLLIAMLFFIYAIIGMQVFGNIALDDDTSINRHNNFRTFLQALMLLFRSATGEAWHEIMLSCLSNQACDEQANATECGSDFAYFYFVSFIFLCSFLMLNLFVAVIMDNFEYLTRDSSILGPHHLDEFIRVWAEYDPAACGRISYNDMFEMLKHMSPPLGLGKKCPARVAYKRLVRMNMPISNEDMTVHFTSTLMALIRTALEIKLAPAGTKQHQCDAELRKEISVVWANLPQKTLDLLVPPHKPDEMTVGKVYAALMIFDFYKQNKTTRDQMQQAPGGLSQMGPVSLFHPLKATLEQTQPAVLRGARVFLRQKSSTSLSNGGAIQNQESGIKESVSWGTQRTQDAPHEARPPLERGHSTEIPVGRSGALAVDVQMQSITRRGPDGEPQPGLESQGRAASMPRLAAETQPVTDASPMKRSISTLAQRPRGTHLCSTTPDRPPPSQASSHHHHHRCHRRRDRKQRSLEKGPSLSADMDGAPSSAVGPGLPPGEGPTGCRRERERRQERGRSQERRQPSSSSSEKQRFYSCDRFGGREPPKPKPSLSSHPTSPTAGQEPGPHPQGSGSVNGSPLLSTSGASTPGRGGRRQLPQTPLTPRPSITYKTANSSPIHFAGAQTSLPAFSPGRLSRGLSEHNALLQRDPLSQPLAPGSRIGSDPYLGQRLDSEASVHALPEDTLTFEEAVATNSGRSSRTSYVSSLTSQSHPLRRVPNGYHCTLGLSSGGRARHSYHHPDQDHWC
T2 sequence (Q02410 whole entry): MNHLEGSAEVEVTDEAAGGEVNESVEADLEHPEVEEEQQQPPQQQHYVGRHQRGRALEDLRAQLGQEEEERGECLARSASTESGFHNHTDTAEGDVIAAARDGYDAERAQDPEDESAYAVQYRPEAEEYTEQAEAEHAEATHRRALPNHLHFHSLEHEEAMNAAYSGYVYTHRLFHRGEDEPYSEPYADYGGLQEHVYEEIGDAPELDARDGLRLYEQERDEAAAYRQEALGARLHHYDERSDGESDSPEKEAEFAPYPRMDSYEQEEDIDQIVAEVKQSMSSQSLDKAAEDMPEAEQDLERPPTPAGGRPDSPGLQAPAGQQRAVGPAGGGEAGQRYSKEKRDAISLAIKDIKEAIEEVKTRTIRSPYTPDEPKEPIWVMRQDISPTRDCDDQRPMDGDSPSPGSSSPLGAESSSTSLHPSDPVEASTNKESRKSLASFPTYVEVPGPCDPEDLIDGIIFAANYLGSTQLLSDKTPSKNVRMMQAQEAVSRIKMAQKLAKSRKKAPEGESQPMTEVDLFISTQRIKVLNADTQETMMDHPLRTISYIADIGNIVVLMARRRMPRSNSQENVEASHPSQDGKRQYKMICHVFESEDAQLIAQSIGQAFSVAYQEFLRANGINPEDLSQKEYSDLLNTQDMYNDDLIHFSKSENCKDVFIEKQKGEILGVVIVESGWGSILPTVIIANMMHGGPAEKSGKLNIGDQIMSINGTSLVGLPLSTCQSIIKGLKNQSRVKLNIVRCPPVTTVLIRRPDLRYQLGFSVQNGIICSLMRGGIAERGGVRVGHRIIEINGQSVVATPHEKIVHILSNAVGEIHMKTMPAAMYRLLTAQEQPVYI
Sequence of DNA dC->dU-editing enzyme APOBEC-3G (Q9HC16 whole entry): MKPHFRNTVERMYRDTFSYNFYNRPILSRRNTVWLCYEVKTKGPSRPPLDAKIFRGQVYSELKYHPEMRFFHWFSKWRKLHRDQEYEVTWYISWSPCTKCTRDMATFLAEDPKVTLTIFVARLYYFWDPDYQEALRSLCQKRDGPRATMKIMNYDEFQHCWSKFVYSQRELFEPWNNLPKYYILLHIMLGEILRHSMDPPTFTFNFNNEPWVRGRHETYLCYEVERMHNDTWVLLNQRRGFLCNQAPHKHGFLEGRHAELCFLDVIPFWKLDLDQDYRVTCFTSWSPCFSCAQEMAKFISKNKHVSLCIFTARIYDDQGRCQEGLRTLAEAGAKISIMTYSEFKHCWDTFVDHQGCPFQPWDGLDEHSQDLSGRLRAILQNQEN
Sequence of DNA dC->dU-editing enzyme APOBEC-3A (P31941 whole entry): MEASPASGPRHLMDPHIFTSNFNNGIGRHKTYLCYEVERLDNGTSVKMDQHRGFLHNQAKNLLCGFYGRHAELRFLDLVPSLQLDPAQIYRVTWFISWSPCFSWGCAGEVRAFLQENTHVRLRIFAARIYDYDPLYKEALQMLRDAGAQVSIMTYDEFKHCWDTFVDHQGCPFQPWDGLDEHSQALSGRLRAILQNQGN
Sequence of Beta-galactosidase (Q8VNN2 whole entry): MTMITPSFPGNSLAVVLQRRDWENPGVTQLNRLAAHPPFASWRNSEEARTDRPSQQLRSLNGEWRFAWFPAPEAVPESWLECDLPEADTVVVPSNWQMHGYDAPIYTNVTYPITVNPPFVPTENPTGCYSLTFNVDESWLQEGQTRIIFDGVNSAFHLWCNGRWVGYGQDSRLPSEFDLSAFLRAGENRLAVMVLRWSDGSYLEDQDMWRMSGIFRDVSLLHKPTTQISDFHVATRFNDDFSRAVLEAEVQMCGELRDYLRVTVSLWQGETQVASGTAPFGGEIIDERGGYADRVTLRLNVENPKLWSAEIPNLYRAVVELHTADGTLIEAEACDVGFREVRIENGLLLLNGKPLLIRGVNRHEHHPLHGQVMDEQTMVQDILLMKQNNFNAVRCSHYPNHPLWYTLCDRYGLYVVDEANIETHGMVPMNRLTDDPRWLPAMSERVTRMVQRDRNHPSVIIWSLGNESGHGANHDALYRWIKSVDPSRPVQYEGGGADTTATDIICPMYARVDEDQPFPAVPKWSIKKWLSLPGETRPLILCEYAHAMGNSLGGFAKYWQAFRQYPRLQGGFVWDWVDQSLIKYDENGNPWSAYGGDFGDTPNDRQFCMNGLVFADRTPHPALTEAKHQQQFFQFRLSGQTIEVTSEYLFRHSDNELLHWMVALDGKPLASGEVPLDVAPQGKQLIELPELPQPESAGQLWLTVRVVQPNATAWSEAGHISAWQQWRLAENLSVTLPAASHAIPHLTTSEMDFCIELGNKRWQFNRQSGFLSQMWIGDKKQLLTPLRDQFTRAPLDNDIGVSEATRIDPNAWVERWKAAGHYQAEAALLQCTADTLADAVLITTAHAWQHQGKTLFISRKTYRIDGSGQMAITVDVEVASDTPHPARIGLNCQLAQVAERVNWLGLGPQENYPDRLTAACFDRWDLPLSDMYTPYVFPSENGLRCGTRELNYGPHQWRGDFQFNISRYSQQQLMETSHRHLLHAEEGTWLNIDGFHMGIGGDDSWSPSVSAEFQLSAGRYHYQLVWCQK
Sequence of FAD-linked sulfhydryl oxidase ALR (P55789 whole entry): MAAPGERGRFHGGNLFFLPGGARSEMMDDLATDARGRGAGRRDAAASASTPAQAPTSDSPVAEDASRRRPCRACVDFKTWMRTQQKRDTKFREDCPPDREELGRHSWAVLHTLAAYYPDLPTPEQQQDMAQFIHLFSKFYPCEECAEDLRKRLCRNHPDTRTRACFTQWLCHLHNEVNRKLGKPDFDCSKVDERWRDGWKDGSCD

CCOC(=O)/C=C(\C)Sc1cc(=O)oc2ccccc12
IC50 [1]: > 80 µM (inactive)
AC50 [2]: 8.71 µM (active)
AC50 (HEK293): 12 µM (active)

O=C1C=CC(=O)N1c1ccc(N2CCCCC2)cc1
IC50 (Beta-galactosidase): > 66.6 µM (inactive)
IC50 [3]: > 80 µM (inactive)
IC50 [4]: 9.34 µM (active)
AC50 [5]: 0.554 µM (active)
IC50 [6]: > 100 µM (inactive)
IC50 [7]: 3.07 µM (active)
IC50 [8]: 7.13 µM (active)

Oc1ccc(-c2nc3ncccn3c2Nc2ccc3c(c2)OCCO3)cc1
EC50 [9]: > 50 µM (active)

CCn1c2ccccc2c2cc(NC(=O)CSc3nnc(-c4ccc(OC)cc4)n3N)ccc21
IC50 (Estrogen receptor): 12.2 µM (active)

COc1cccc(N2CCN(C3=C(Cl)C(=O)N(c4cccc(OC)c4)C3=O)CC2)c1
IC50 [10]: > 50 µM (inconclusive)

CC1CC(C(F)(F)C(F)(F)F)n2nc(C(=O)O)cc2N1 (centres undefined)
IC50 (Estrogen receptor): 19.9 µM (active)

O=C(Cn1sc2ccccc2c1=O)Nc1ccccc1Br
IC50 (Hexokinase): 4.66 µM (active)

CC(C)(C)c1ccc(C(=O)Nc2cc(Cl)c(F)cc2C(=O)O)cc1
IC50 (Hexokinase): 2.79 µM (active)

Cc1cccc(N/N=C/c2ccc(O)c(O)c2O)c1
IC50 (Genome polyprotein): 32.6 µM (active)
EC50 [9]: > 50 µM (active)
AC50 [11]: 1.36 µM (active)

COc1cc(/C=N\Nc2nc(-c3ccc(C)cc3)c(NC(C)=O)s2)ccc1O
IC50 [12]: 3.02 µM (not active)

Cc1ccc(/C=N/n2c(S)nnc2-c2ccco2)s1
IC50 [6]: > 100 µM (inactive)
IC50 [8]: 1.55 µM (active)

O=c1ccsn1-c1ccccc1
IC50 (Hexokinase): 13.5 µM (active)

O=S1OCC2C(CO1)C1(Cl)C(Cl)=C(Cl)C2(Cl)C1(Cl)Cl (centres undefined) [ENDOSULFAN]
AC50 (Cytochrome P450 3A4): 2.51 µM (inconclusive)
